Assay results from US9511136B2, “Immunogenic compounds comprising HIV GP41 peptide coupled to CRM197 carrier protein” ([…], priority 2012, dated 2016).
“And” between values parts separate entries of the source, which are not always exact repeats. Equal values may be shown once.

System: NKp44L at the surface of activated human CD4+ T cells
Assay: Inhibition by antiserums of 3S16Nter-induced NKp44L expression at the surface of activated human CD4+ T cells (cytofluorometry)
Assay type: cell-based
From the text: The aim of Example 5 was to test the ability of the antiserums of a rat vaccinated with the adjuvanted 3S drug substance to inhibit the expression of NKp44L at the surface of activated human CD4+ T cells induced by the 3S peptide, namely the 3S16Nter peptide.
CD4+ T cells were sorted from human PBMC and activated for 3 days with PHA (Thermo Fisher Scientific, Waltham, USA) then expanded for three days with recombinant IL-2 (Novartis, Horsham, United Kingdom). The cells were put in presence of 3S16Nter peptides (Covalab, Villeurbanne, France) in order to induce the expression of NKp44L at their surface.
The expression of NKp44L at the surface of the cells was measured using the intensity of a specific fluorescent staining measured by cytofluorometry.
The inhibition of NKp44L expression by the antiserums of vaccinated rat was studied.
The antisera were tested at different dilutions in triplicate.
Human CD4+ T cells were obtained by magnetic separation from a leuko-platelet residue pouch ordered from the EFS (“Etablissement Francais du Sang”).
The human CD4+ T cells were sorted from the pouch according to the following protocol: • 1. The pouch is distributed in four Falcon tubes of 50 mL: 4×15 mL • 2. Complete to 50 mL with RPMI1640+glutamax medium (ref 72400-054, GIBCO, Life Technologies, Carlsbad, USA) • 3. […]

In the case of H-CPWNASWSNKSLDDIW-OH [3S16Nter], the “PE X-mean fluorescence” value (no serum, with 3S16Nter peptides (5 μg/mL), single wells) is reported as 59.6 and 64.7 and the “NKp44L expression on activated CD4+ T cells (mean level)” value (without serum, in the presence of 3S16Nter peptides) is reported as 62.
